From PMC5552351, “Bacteriological profiling of diphenylureas as a novel class of antibiotics against methicillin-resistant Staphylococcus aureus” (PLoS ONE, 2017)
≈ marks a conversion by molar mass, not a printed value. Where two headings read alike, the source gives them in different places.

Key:
S. aureus ATCC 6538 = test: broth microdilution MIC; assay type: cell-based; conditions: Staphylococcus aureus, ATCC6538; S. aureus ATCC 6538, biofilm-forming strain; read-out: MIC
Protocol: (§1) The broth microdilution assay was employed to determine the MIC of compounds 1, 2, and vancomycin against five MRSA strains, four VRSA strains, one highly mupirocin-resistant S. aureus strain, one biofilm-forming S. aureus (ATCC 6538) strain, and one biofilm-forming methicillin-resistant S. epidermidis strain, as per the guidelines of the Clinical and Laboratory Standards Institute (CLSI). […] The MBC was determined by plating an aliquot (5 μL) from wells with no growth onto TSA plates. Plates were incubated at 37 °C for 19 hours before recording the MBC (concentration where no growth was observed on TSA plates).

S. epidermidis NRS101 = test: broth microdilution MIC; assay type: cell-based; conditions: Staphylococcus epidermidis; S. epidermidis NRS101, biofilm-forming strain; read-out: MIC
Protocol: as §1

[1] = system: clinically-relevant strains of MRSA and VRSA; test: broth microdilution MIC/MBC, panel summary; assay type: cell-based; conditions: Staphylococcus aureus, summary over the MRSA isolates of Table 1; read-out: concentration inhibiting growth of MRSA isolates (MIC)
Protocol: as §1

[2] = system: S. aureus ATCC 6538 biofilm; test: bacterial CFU inside mature biofilm post-treatment; assay type: cell-based, Staphylococcus aureus; conditions: 24 hours
Protocol: (§2) Compounds 1, 2, and vancomycin were examined for their ability to eradicate mature staphylococcal biofilm using the microtiter dish biofilm formation assay. S. epidermidis NRS101 and S. aureus ATCC 6538 were selected as the test organisms given their ability to form strong adherent biofilm. An overnight culture of bacteria was diluted (1:100 in TSB + 1% glucose) and transferred to a 96-well plate. The plate was incubated for 24 hours at 37 °C in order to form adherent biofilm on the surface of the plate wells. The medium containing the bacterial suspension was removed and the biofilm was washed with sterile PBS to remove planktonic cells. Compounds 1, 2, or vancomycin (from 128 to 1 μg/mL), in triplicate, in TSB were incubated with the biofilm for 24 hours at 37 °C.
(§3) For enumeration of viable CFU inside the biofilm, compounds were removed, wells were washed with sterile PBS, and treated with 0.25% Trypsin-2.21 mM EDTA solution as described elsewhere. The solution containing cells was transferred to a 96-well plate, serially diluted in PBS, and plated on TSA. Plates were incubated at 37 °C for 19 hours before viable CFU were counted. Data are presented as average log10(CFU/mL) of bacteria present in the biofilm post-treatment.

[3] = aqueous solubility assessment (turbidity); assay type: physicochemical; conditions: aqueous buffer, kinetic from dmso stock
Protocol: The solutions were diluted 100-fold into PBS in a 96-well plate and mixed. The absorbance of the PBS-containing plate was measured prior to addition of the test agents to determine the background absorbance. After two hours, the presence of precipitate was detected by turbidity (absorbance at 540 nm). […] The solubility limit is reported as the highest experimental concentration with no evidence of turbidity.

MRSA USA400 (NRS123) = test: MIC in presence and absence of human serum albumin; assay type: cell-based, Staphylococcus aureus; conditions: for increase in MIC in the presence of HSA: MRSA USA400, 4% human serum albumin vs none; for MIC: Staphylococcus aureus, TSB
Protocol: The broth microdilution assay presented above was used to assess if compounds 1 and 2 bind to a major component of blood (human serum albumin) thus limiting the free fraction of drug available to exert its antibacterial effect. […] CaCl2 ([…]) was added to wells containing daptomycin, per the CLSI guidelines.

VRS10 = test: broth microdilution MIC/MBC; assay type: cell-based; conditions: Staphylococcus aureus, VRS10, vancomycin-resistant S. aureus; for MBC: read-out: MBC; for MIC: read-out: MIC
Protocol: as §1

MRSA NRS384 (USA300) = test: broth microdilution MIC/MBC; assay type: cell-based; conditions: Staphylococcus aureus, MRSA NRS384 (USA300); for MBC: read-out: MBC; for MIC: read-out: MIC
Protocol: as §1

MRSA NRS123 (USA400) = test: broth microdilution MIC/MBC; assay type: cell-based; conditions: Staphylococcus aureus, MRSA NRS123 (USA400); for MBC: read-out: MBC; for MIC: read-out: MIC
Protocol: as §1

VRS7 = test: broth microdilution MIC/MBC; assay type: cell-based; conditions: Staphylococcus aureus, VRS7, vancomycin-resistant S. aureus; for MBC: read-out: MBC; for MIC: read-out: MIC
Protocol: as §1

MRSA NRS484 (USA1100) = test: broth microdilution MIC/MBC; assay type: cell-based; conditions: Staphylococcus aureus, MRSA NRS484 (USA1100); for MBC: read-out: MBC; for MIC: read-out: MIC
Protocol: as §1

VRS4 = test: broth microdilution MIC/MBC; assay type: cell-based; conditions: Staphylococcus aureus, VRS4, vancomycin-resistant S. aureus; for MBC: read-out: MBC; for MIC: read-out: MIC
Protocol: as §1

MRSA NRS387 (USA800) = test: broth microdilution MIC/MBC; assay type: cell-based; conditions: Staphylococcus aureus, MRSA NRS387 (USA800); for MBC: read-out: MBC; for MIC: read-out: MIC
Protocol: as §1

S. aureus NRS107 = test: broth microdilution MIC/MBC; assay type: cell-based; conditions: Staphylococcus aureus, S. aureus NRS107; for MBC: read-out: MBC; for MIC: read-out: MIC
Protocol: as §1

VRS11a = test: broth microdilution MIC/MBC; assay type: cell-based; conditions: Staphylococcus aureus, VRS11a, vancomycin-resistant S. aureus; for MBC: read-out: MBC; for MIC: read-out: MIC
Protocol: as §1

MRSA NRS483 (USA1000) = test: broth microdilution MIC/MBC; assay type: cell-based; conditions: Staphylococcus aureus, MRSA NRS483 (USA1000); for MBC: read-out: MBC; for MIC: read-out: MIC
Protocol: as §1

MRSA USA300 (NRS384) = test: time-kill assay; assay type: cell-based, Staphylococcus aureus; conditions: 4 × MIC; for reduction of MRSA CFU/mL: within two hours
[4] = system: S. epidermidis NRS101 biofilm; test: bacterial CFU inside mature biofilm post-treatment; assay type: cell-based, Staphylococcus epidermidis; conditions: 24 hours
Protocol: as §2, §3

[5] = 4% human serum albumin, read-out: MIC vs. MRSA USA400 (+HSA)
[6] = without human serum albumin, read-out: MIC vs. MRSA USA400 (-HSA)

Compound: C/C(=N\NC(=N)N)c1ccc(NC(=O)Nc2ccc(OCCC(C)C)cc2)cc1 [compound 1]
- MIC (S. aureus ATCC 6538): 4 µg/mL (≈ 10.1 µM)
- MIC (S. epidermidis NRS101): 2 µg/mL (≈ 5.04 µM)
- MIC [1]: ≥ 4 µg/mL
- reduction in bacterial CFU within S. aureus biofilm ([2]; 64 μg/mL): 0.9 log10
- reduction in bacterial CFU within S. aureus biofilm ([2]; 128 μg/mL): 3.0 log10
- solubility at 2 h [3]: 23.9 µg/mL (≈ 60.4 µM)
- increase in MIC in the presence of HSA (MRSA USA400 (NRS123)): seven-fold
- MIC (MRSA USA400 (NRS123); [5]): 32 µg/mL (≈ 80.7 µM)
- MIC (MRSA USA400 (NRS123); [6]): 4 µg/mL (≈ 10.1 µM)
- MBC (VRS10): 4 µg/mL (≈ 10.1 µM)
- MIC (VRS10): 4 µg/mL (≈ 10.1 µM)
- MBC (MRSA NRS384 (USA300)): 4 µg/mL (≈ 10.1 µM)
- MIC (MRSA NRS384 (USA300)): 4 µg/mL (≈ 10.1 µM)
- MBC (MRSA NRS123 (USA400)): 4 µg/mL (≈ 10.1 µM)
- MIC (MRSA NRS123 (USA400)): 4 µg/mL (≈ 10.1 µM)
- MBC (VRS7): 8 µg/mL (≈ 20.2 µM)
- MIC (VRS7): 8 µg/mL (≈ 20.2 µM)
- MBC (MRSA NRS484 (USA1100)): 8 µg/mL (≈ 20.2 µM)
- MIC (MRSA NRS484 (USA1100)): 8 µg/mL (≈ 20.2 µM)
- MBC (VRS4): 8 µg/mL (≈ 20.2 µM)
- MIC (VRS4): 8 µg/mL (≈ 20.2 µM)
- MBC (MRSA NRS387 (USA800)): 4 µg/mL (≈ 10.1 µM)
- MIC (MRSA NRS387 (USA800)): 4 µg/mL (≈ 10.1 µM)
- MBC (S. aureus NRS107): 4 µg/mL (≈ 10.1 µM)
- MIC (S. aureus NRS107): 4 µg/mL (≈ 10.1 µM)
- MBC (VRS11a): 4 µg/mL (≈ 10.1 µM)
- MIC (VRS11a): 4 µg/mL (≈ 10.1 µM)
- MBC (MRSA NRS483 (USA1000)): 4 µg/mL (≈ 10.1 µM)
- MIC (MRSA NRS483 (USA1000)): 4 µg/mL (≈ 10.1 µM)
- time to completely eradicate a high inoculum of MRSA (~10^6 CFU/mL) (MRSA USA300 (NRS384)): within four hours
- reduction of MRSA CFU/mL (MRSA USA300 (NRS384)): 3 log10
- reduction in bacterial CFU within S. epidermidis biofilm ([4]; 64 μg/mL): 1.0 log10
- reduction in bacterial CFU within S. epidermidis biofilm ([4]; 128 μg/mL): 2.84 log10
- reduction in bacterial CFU within S. epidermidis biofilm ([4]; 8, 16, and 32 μg/mL, vs untreated control): no reduction

Compound: C/C(=N\NC(=N)N)c1ccc(NC(=O)Nc2ccc(OC3CCCCCC3)cc2)cc1 [compound 2]
- MIC (S. aureus ATCC 6538): 8 µg/mL (≈ 18.9 µM)
- MIC (S. epidermidis NRS101): 4 µg/mL (≈ 9.47 µM)
- MIC [1]: ≥ 4 µg/mL
- reduction in bacterial CFU within S. aureus biofilm ([2]; 64 μg/mL): 0.8 log10
- reduction in bacterial CFU within S. aureus biofilm ([2]; 128 μg/mL): 1.76 log10
- solubility at 2 h [3]: 5.15 µg/mL (≈ 12.2 µM)
- increase in MIC in the presence of HSA (MRSA USA400 (NRS123)): 15 fold
- MIC (MRSA USA400 (NRS123); [5]): 128 µg/mL (≈ 303 µM)
- MIC (MRSA USA400 (NRS123); [6]): 8 µg/mL (≈ 18.9 µM)
- MBC (VRS10): 8 µg/mL (≈ 18.9 µM)
- MIC (VRS10): 4 µg/mL (≈ 9.47 µM)
- MBC (MRSA NRS384 (USA300)): 16 µg/mL (≈ 37.9 µM)
- MIC (MRSA NRS384 (USA300)): 8 µg/mL (≈ 18.9 µM)
- MBC (MRSA NRS123 (USA400)): 8 µg/mL (≈ 18.9 µM)
- MIC (MRSA NRS123 (USA400)): 8 µg/mL (≈ 18.9 µM)
- MBC (VRS7): 16 µg/mL (≈ 37.9 µM)
- MIC (VRS7): 16 µg/mL (≈ 37.9 µM)
- MBC (MRSA NRS484 (USA1100)): 16 µg/mL (≈ 37.9 µM)
- MIC (MRSA NRS484 (USA1100)): 16 µg/mL (≈ 37.9 µM)
- MBC (VRS4): 16 µg/mL (≈ 37.9 µM)
- MIC (VRS4): 16 µg/mL (≈ 37.9 µM)
- MBC (MRSA NRS387 (USA800)): 16 µg/mL (≈ 37.9 µM)
- MIC (MRSA NRS387 (USA800)): 8 µg/mL (≈ 18.9 µM)
- MBC (S. aureus NRS107): 8 µg/mL (≈ 18.9 µM)
- MIC (S. aureus NRS107): 8 µg/mL (≈ 18.9 µM)
- MBC (VRS11a): 8 µg/mL (≈ 18.9 µM)
- MIC (VRS11a): 8 µg/mL (≈ 18.9 µM)
- MBC (MRSA NRS483 (USA1000)): 16 µg/mL (≈ 37.9 µM)
- MIC (MRSA NRS483 (USA1000)): 16 µg/mL (≈ 37.9 µM)
- time to completely eradicate a high inoculum of MRSA (~10^6 CFU/mL) (MRSA USA300 (NRS384)): within four hours
- reduction of MRSA CFU/mL (MRSA USA300 (NRS384)): 3 log10
- reduction in bacterial CFU within S. epidermidis biofilm ([4]; all concentrations tested (from 8 to 128 μg/mL)): unable to reduce
